Data reported in patent US20060045953A1 (priority 2004, published 2006).
pEC50: −log10 of the molar value.

Target: T1, hT1R1/hT1R3 umami receptor (Homo sapiens, UniProt Q7RTX0+Q7RTX1)
T1 construct: expressed in transfected cells; host or cells: HEK293 derivative stably expressing Gα15, clone I-17, expression induced with mifepristone
T1 sequence (Q7RTX1 21-841): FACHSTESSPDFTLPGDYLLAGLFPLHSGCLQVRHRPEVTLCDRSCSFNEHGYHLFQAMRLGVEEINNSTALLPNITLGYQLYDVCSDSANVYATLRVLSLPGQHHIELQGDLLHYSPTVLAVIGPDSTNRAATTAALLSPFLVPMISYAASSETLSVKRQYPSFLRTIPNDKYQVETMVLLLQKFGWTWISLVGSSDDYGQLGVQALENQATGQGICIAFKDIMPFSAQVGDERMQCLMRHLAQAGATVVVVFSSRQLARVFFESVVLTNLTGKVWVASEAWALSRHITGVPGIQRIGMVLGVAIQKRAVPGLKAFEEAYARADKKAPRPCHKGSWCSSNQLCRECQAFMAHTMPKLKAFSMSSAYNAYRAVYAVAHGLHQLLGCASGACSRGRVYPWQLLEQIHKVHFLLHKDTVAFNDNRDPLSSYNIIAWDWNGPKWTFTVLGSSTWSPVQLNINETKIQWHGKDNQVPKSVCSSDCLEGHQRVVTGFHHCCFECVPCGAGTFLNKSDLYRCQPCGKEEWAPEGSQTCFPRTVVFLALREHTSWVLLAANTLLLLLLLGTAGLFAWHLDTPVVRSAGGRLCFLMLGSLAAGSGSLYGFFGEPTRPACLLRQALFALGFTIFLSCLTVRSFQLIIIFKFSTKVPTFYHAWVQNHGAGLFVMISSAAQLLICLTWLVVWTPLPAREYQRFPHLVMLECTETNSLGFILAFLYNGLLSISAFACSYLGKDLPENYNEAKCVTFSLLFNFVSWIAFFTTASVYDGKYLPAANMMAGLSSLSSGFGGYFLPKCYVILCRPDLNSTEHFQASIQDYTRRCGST
T1 sequence (Q7RTX0 21-852): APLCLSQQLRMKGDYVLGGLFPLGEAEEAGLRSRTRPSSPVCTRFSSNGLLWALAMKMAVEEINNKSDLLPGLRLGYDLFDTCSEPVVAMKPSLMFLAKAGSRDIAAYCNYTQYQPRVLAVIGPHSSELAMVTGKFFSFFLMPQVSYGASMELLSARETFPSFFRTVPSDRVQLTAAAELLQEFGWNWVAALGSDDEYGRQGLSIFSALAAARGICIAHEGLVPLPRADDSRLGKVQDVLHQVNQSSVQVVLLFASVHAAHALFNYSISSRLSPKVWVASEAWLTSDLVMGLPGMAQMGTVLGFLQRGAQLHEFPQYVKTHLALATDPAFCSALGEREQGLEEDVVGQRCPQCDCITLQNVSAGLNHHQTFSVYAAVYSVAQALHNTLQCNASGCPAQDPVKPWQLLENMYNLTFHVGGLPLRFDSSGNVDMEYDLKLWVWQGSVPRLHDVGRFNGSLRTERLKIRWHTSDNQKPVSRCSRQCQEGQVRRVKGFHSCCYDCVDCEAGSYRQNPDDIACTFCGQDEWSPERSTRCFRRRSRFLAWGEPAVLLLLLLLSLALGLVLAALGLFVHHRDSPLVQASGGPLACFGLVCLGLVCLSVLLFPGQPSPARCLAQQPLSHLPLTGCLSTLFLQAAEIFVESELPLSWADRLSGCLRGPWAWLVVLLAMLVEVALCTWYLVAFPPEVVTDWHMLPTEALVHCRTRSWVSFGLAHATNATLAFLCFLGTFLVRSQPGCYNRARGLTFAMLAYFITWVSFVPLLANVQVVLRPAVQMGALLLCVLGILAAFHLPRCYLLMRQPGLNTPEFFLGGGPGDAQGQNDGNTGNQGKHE
Experiment: In vitro hT1R1/hT1R3 umami taste receptor activation assay (FLIPR, dose response)
Assay type: cell-based
Details: read-out: EC50 for activation of a hT1R1/hT1R3 umami receptor expressed in an HEK293 cell line
Description: In order to identify new savory flavoring agents and enhancers, including compounds with savory agonist and enhancer activities (dual activity), the compounds of Formula (I) were screened in primary assays and secondary assays including compound dose response and enhancement assay. In a primary assay for potential ability to modulate umami taste, amide compounds of Formula (I) that can be either savory flavoring agents in their own right or flavor enhancers of MSG are identified and scores of their activities are given as percentage of the maximum MSG intensity (%). In compound dose response, an EC50 is calculated to reflect the potency of the compound as a savory agonist or enhancer.
An HEK293 cell line derivative (See e.g., Chandrashekar, et al., Cell (2000) 100: 703-711) which stably expresses Gα15 and hT1R1/hT1R3 under an inducible promoter (see WO 03/001876 A2) was used to identify compounds with savory tasting properties.
For dose-responses analysis, stimuli were presented in duplicates at 10 different concentrations ranging from 1.5 nM to 30 μM. Activities were normalized to the response obtained with 60 mM monosodium glutamate, a concentration that elicits maximum receptor response. […] Identical results were obtained when analyzing the dose-response data using commercially available software for non-linear regression analysis such as GraphPad PRISM (San Diego, Calif.).

Row | pEC50 | SMILES
1 | 6.68 | CCCC(CCC)NC(=O)c1ccc(C)c(SC)c1 [Example 48, 4-methyl-3-methylsulfanyl-N-(1-propylbutyl)benzamide]
2 | 7.00 | COC(=O)[C@@H](CC(C)C)NC(=O)c1ccc(C)c(SC)c1 [Example 49, (R)-methyl 4-methyl-2-(4-methyl-3-(methylthio)benzamido)pentanoate]
3 | 6.80 | COC(=O)[C@@H](CC(C)C)NC(=O)c1ccc(SC)cc1 [Example 50, (R)-methyl 4-methyl-2-(4-(methylthio)benzamido)pentanoate]
4 | 7.00 | CCCC(CC(C)C)NC(=O)c1ccc(OC)c(C)c1 (stereo not shown) [Example 52, 4-methoxy-3-methyl-N-(2-methylheptan-4-yl)benzamide]
5 | 7.05 | CCC(CC(C)C)NC(=O)c1ccc(OC)c(C)c1 (stereo not shown) [Example 53, 4-methoxy-3-methyl-N-(5-methylhexan-3-yl)benzamide]
6 | 5.50 | CCCC(NC(=O)c1ccc(OC)c(C)c1)c1ccc(OC)cc1 (stereo not shown) [Example 54, 4-methoxy-N-(1-(4-methoxyphenyl)butyl)-3-methylbenzamide]
7 | 5.27 | COc1ccc(C(=O)N[C@H](CC(C)C)c2nc(C)no2)cc1C [Example 55, (R)-4-methoxy-3-methyl-N-(3-methyl-1-(3-methyl-1,2,4-oxadiazol-5-yl)butyl)benzamide]
8 | 6.77 | CCCC(CCC)NC(=O)c1ccc(OCC)c(C)c1 [Example 56, 4-ethoxy-N-(heptan-4-yl)-3-methylbenzamide]
9 | 6.16 | CCCC(COC)NC(=O)c1ccc(OCC)c(C)c1 (stereo not shown) [Example 57, 4-ethoxy-N-(1-methoxypentan-2-yl)-3-methylbenzamide]
10 | 6.04 | CCCC(CCC)NC(=O)c1ccc(O)c(C)c1 [Example 58, 4-hydroxy-3-methyl-N-(1-propyl-butyl)-benzamide]

The remaining lines, values behind:

Row | SMILES | pEC50
11 | COC(=O)[C@@H](CC1CCCCC1)NC(=O)c1cc2cc(OC)ccc2o1 [Example 30, (R)-methyl 3-cyclohexyl-2-(5-methoxybenzofuran-2-carboxamido)propanoate] | 5.94
12 | CCC(CC(C)C)NC(=O)c1cc2cc(OC)ccc2o1 (stereo not shown) [Example 31, 5-methoxy-N-(5-methylhexan-3-yl)benzofuran-2-carboxamide] | 5.98
13 | COC(=O)[C@@H](CC(C)C)NC(=O)c1cc2cc(Cl)ccc2o1 [Example 32] | 6.09
14 | COC(=O)[C@@H](CC(C)C)NC(=O)c1oc2ccccc2c1C [Example 33, (R)-methyl 4-methyl-2-(3-methylbenzofuran-2-carboxamido)pentanoate] | 5.93
15 | CCCC(CCC)NC(=O)c1cc2ccccc2s1 [Example 34, N-(heptan-4-yl)benzo[b]thiophene-2-carboxamide] | 6.68
16 | CCCC(CCC)NC(=O)c1cc2ccccc2[nH]1 [Example 35, N-(heptan-4-yl)-1H-indole-2-carboxamide] | 5.17
17 | COC(=O)[C@@H](CC(C)C)NC(=O)c1cc2cc(C)ccc2[nH]1 [Example 36, (R)-methyl 4-methyl-2-(5-methyl-1H-indole-2-carboxamido)pentanoate] | 5.18
18 | CCCC(CCC)NC(=O)c1cc2ccccc2n1C [Example 37, N-(heptan-4-yl)-1-methyl-1H-indole-2-carboxamide] | 5.75
19 | CCCC(CCC)NC(=O)c1ccc2[nH]cnc2c1 [Example 38, N-(heptan-4-yl)-1H-benzo[d]imidazole-5-carboxamide] | 4.73
20 | CCCC(CCC)NC(=O)c1ccc2ocnc2c1 [Example 39, benzooxazole-5-carboxylic acid (1-propylbutyl)amide] | 5.72
21 | CCCC(CCC)NC(=O)c1ccc2oc(C)nc2c1 [Example 40, 2-Methyl-benzooxazole-5-carboxylic acid (1-propyl-butyl)-amide] | 6.48
22 | CCCC(CCC)NC(=O)c1ccc2nc(C)oc2c1 [Example 46, 2-Methyl-benzooxazole-6-carboxylic acid (1-propyl-butyl)-amide] | 5.68
